Experimental data: US20090047243A1, “COMBINATIONS FOR THE TREATMENT OF B-CELL PROLIFERATIVE DISORDERS” (priority 2007, published 2009)

How the values were obtained:
[1] = system: H929 multiple myeloma cell line; assay: Anti-proliferation assay (ATPLite, 72 h); type: cell-based, human; design: key: S = lnfX·lnfY·ΣIdata(Idata−ILoewe), volume over Loewe additivity; settings: for synergy (score), PDEi × HE-NECA: 6×6 cross of PDE inhibitor or PDE inhibitor mixture with HE-NECA
Protocol: (§1) ANBL6 and INA-6 culture media was also supplemented with 10 ng/ml IL-6. […] MM.1S, MM.1R, OCI-ly10, Karpas 422, and SU-DHL6 cells were provided by the Dana Farber Cancer Institute. H929, RPMI-8226, GA-10, and Farage cells were from ATCC (Cat #'s CCL-155, CRL-9068, CRL-2392 and CRL-2630 respectively). MOLP-8, EJM, KSM-12-PE, and OPM2 were from DSMZ. The ANBL6 and INA-6 cell lines were provided by the M. D. Anderson Cancer Research Center. Compounds were prepared in DMSO at 1000× the highest desired concentration. Master plates were generated consisting of serially diluted compounds in 2- or 3-fold dilutions in 384-well format. For single agent dose response curves, the master plates consisted of 9 individual compounds at 12 concentrations in 2- or 3-fold dilutions. For combination matrices, master plates consisted of individual compounds at 6 or 9 concentrations at 2- or 3-fold dilutions. […] To obtain combination data, two master plates were diluted into the assay plates. […] Thirty microliters of ATPLite (Perkin Elmer) at room temperature was then added to each well. […] Measurements were taken at the top of the well using a luminescence aperture and a read time of 0.1 seconds per well. The percent inhibition (% I) for each well was calculated using the following formula: % I=[(avg. untreated wells-treated well)/(avg. untreated wells)]×100. […] Negative inhibition values result from local variations in treated wells as compared to untreated wells. […] The uncertainty of each fitted parameter was estimated from the range over which the change in reduced chi-squared was less than one, or less than minimum reduced chi-squared if that minimum exceeded one, to allow for underestimated σI errors. Single agent curve data were used to define a dilution series for each compound to be used for combination screening in a 6×6 matrix format. […] The Loewe additivity model was used to quantify combination effects. […] A “Synergy Score” was also used, where the Synergy Score S=log fX log fY ΣIdata(Idata-ILoewe), summed over all non-single-agent concentration pairs, and where log fX,Y is the natural logarithm of the dilution factors used for each single agent. This effectively calculates a volume between the measured and Loewe additive response surfaces, weighted towards high inhibition and corrected for varying dilution factors. An uncertainty σS was calculated for each synergy score, based on the measured errors for the Idata values and standard error propagation.

[2] = system: RPMI-8226 multiple myeloma cell line; assay: Anti-proliferation assay (ATPLite, 72 h); type: cell-based, human; design: key: S = lnfX·lnfY·ΣIdata(Idata−ILoewe), volume over Loewe additivity
Protocol: as §1

[3] = system: human multiple myeloma cells (MM.1S); assay: Anti-proliferation assay (ATPLite, 72 h); type: cell-based; design: key to synergy score / synergy (score), PDEi × HE-NECA: S = lnfX·lnfY·ΣIdata(Idata−ILoewe), volume over Loewe additivity; settings: for synergy (score), PDEi × HE-NECA: 6×6 cross of PDE inhibitor or PDE inhibitor mixture with HE-NECA
Protocol: as §1

[4] = system: human multiple myeloma cells (MM.1R); assay: Anti-proliferation assay (ATPLite, 72 h); type: cell-based; design: key: S = lnfX·lnfY·ΣIdata(Idata−ILoewe), volume over Loewe additivity
Protocol: as §1

[5] = system: phosphodiesterase (PDE) types; settings: PDE type(s) in brackets after the name; cited from earlier work
[6] = PDE inhibitor crossed with (S) ENBA, H929
[7] = PDE inhibitor crossed with ADAC, H929
[8] = PDE inhibitor crossed with Chloro-IB-MECA, H929
[9] = PDE inhibitor crossed with HE-NECA, H929
[10] = in combination with adenosine receptor agonist CGS-21680, H929
[11] = in combination with adenosine receptor agonist HE-NECA, H929
[12] = in combination with adenosine receptor agonist regadenoson, H929
[13] = in combination with adenosine receptor agonist CGS-21680, RPMI 8226
[14] = in combination with adenosine receptor agonist HE-NECA, RPMI-8226
[15] = in combination with adenosine receptor agonist regadenoson, RPMI 8226
[16] = PDE inhibitor crossed with (S) ENBA, MM.1S
[17] = PDE inhibitor crossed with ADAC, MM.1S
[18] = PDE inhibitor crossed with Chloro-IB-MECA, MM.1S
[19] = PDE inhibitor crossed with HE-NECA, MM.1S
[20] = in combination with adenosine receptor agonist CGS-21680, MM.1S
[21] = in combination with adenosine receptor agonist HE-NECA, MM.1S
[22] = in combination with adenosine receptor agonist regadenoson, MM.1S
[23] = in combination with adenosine receptor agonist CGS-21680, MM.1R
[24] = in combination with adenosine receptor agonist regadenoson, MM.1R
[25] = in combination with adenosine receptor agonist ADAC, H929
[26] = in combination with adenosine receptor agonist ADAC, RPMI-8226
[27] = in combination with adenosine receptor agonist ADAC, MM.1S
[28] = in combination with adenosine receptor agonist ADAC, MM.1R

| SMILES | synergy score [1, 6] | synergy score [1, 7] | synergy score [1, 8] | synergy score [1, 9] | synergy score [1, 10] | synergy score [1, 11] | synergy score [1, 12] | synergy score [2, 13] | synergy score [2, 14] | synergy score [2, 15] | synergy score [3, 16] | synergy score [3, 17] | synergy score [3, 18] | synergy score [3, 19] | synergy score [3, 20] | synergy score [3, 21] | synergy score [3, 22] | synergy score [4, 23] | synergy score [4, 24] | PDE inhibitors (specificity) [5] | also measured |
| --- | --- | --- | --- | --- | --- | --- | --- | --- | --- | --- | --- | --- | --- | --- | --- | --- | --- | --- | --- | --- | --- |
| COc1ccc(Cc2nn3c([C@@H](CCCc4ccccc4)[C@@H](C)O)nc(C)c3c(=O)[nH]2)cc1OC [BAY 60-7550, 2-(3,4-dimethoxybenzyl)-7-[(1R)-1-[(1R)-1-hydroxyethyl]-4-phenylbutyl]-5-methylimidazo[5,1-f][1,2,4]triazin-4(3H)-one] | 1.07 | 0.55 | 0.74 | 3.71 | 3.86 | 1.933 | 1.89 | 0.76 | 0.7784 | 0.98 | 2.84 | 0.85 | 0.86 | 3.8 | 3.85 | 2.364 | 0.91 | 4.59 | 3.07 | BAY 60-7550 (2) | synergy (score), PDEi × HE-NECA ([1]; H929): 1.68; synergy (score), PDEi × HE-NECA ([3]; MM.1S): 1.64; inhibition at 0.7375 µM ([3]; Homo sapiens, MM1.S, BAY 60-7550 0.7375 μM, HE-NECA conc. (nM), read-out: Percent inhibition of ATP in MM.1S cells): -9.4%; inhibition at 1.475 µM ([3]; Homo sapiens, MM1.S, BAY 60-7550 1.475 μM, HE-NECA conc. (nM), read-out: Percent inhibition of ATP in MM.1S cells): -3.6%; inhibition at 2.95 µM ([3]; Homo sapiens, MM1.S, BAY 60-7550 2.95 μM, HE-NECA conc. (nM), read-out: Percent inhibition of ATP in MM.1S cells): 4%; inhibition at 5.9 µM ([3]; Homo sapiens, MM1.S, BAY 60-7550 5.9 μM, HE-NECA conc. (nM), read-out: Percent inhibition of ATP in MM.1S cells): 6%; inhibition at 11.8 µM ([3]; Homo sapiens, MM1.S, BAY 60-7550 11.8 μM, HE-NECA conc. (nM), read-out: Percent inhibition of ATP in MM.1S cells): 13% |
| Cc1ccc([N+](=O)[O-])cc1S(=O)(=O)N(C)C [BRL-50481, 3-(N,N-dimethylsulfonamido)-4-methyl-nitrobenzene] | 0.26 |  | 0.34 | 0.23 | 0.34 | 0.193 | 0.19 | 0.19 | 0.147 | 0.39 | 1.22 |  | 1.47 | 1.41 | 1.78 | 1.38 | 0.82 | 1.22 | 1.09 | BRL-50481(7) |  |
| CN(C(=O)CCCOc1ccc2[nH]c(=O)ccc2c1)C1CCCCC1 [Cilostamide, N-cyclohexyl-4-((1,2-dihydro-2-oxo-6-quinolinyl)oxy)-N-methyl-butanamide] | 1.17 |  | 0.65 | 0.28 |  | 1.67 |  |  | 0.2381 |  |  |  | 1.1 | 0.49 |  | 1.637 |  |  |  | Cilostamide (3) | synergy (score), PDEi × HE-NECA ([1]; H929): 0.56; synergy (score), PDEi × HE-NECA ([3]; MM.1S): 1.02; synergy score ([4]; in combination with adenosine receptor agonist HE-NECA, MM.1R): 1.692 |
| O=C1CCc2cc(OCCCCc3nnnn3C3CCCCC3)ccc2N1 [Cilostazol, 6-[4-(1-cyclohexyl-1H-tetrazol-5-yl)butoxy]-3,4-dihydro-2(1H)-quinolinone] | 0.4 | 0.36 | 0.46 | 1.21 | 1.12 | 0.6849 | 1.34 | 0.37 | 0.2486 | 0.12 | 1.73 | 0.89 | 0.75 | 3.50 | 4.09 | 1.849 | 1.85 | 1.57 | 0.76 | Cilostazol (3) |  |
| CCCCOc1cc(CC2CNC(=O)N2)ccc1OC (centres unmarked) [RO-20-1724, 4-(3-butoxy-4-methoxybenzyl)-2-imidazolidinone] | 0.09 | 1.11 | 1.14 | 2.51 |  |  |  |  |  |  | 0.73 | 1.71 | 1.6 | 3.58 |  |  |  |  |  | RO-20-1724 (4) | synergy score [1, 25]: 1.1; synergy score [2, 26]: 0.51; inhibition at 2.28 µM ([3]; Homo sapiens, MM1.S, RO-20-1724 2.28 μM, HE-NECA conc. (nM), read-out: Percent inhibition of ATP in MM.1S cells): 2.3%; inhibition at 4.55 µM ([3]; Homo sapiens, MM1.S, RO-20-1724 4.55 μM, HE-NECA conc. (nM), read-out: Percent inhibition of ATP in MM.1S cells): 11%; inhibition at 18.2 µM ([3]; Homo sapiens, MM1.S, RO-20-1724 18.2 μM, HE-NECA conc. (nM), read-out: Percent inhibition of ATP in MM.1S cells): 10%; inhibition at 36.4 µM ([3]; Homo sapiens, MM1.S, RO-20-1724 36.4 μM, HE-NECA conc. (nM), read-out: Percent inhibition of ATP in MM.1S cells): 1.4%; synergy score [3, 27]: 1.71; synergy score [4, 28]: 3.42 |
| COc1ccc(C2CNC(=O)C2)cc1OC1CCCC1 (centres unmarked) [Rolipram, 4-(3-cyclopentyloxy-4-methoxyphenyl)-2-pyrrolidone] | 0.46 | 1.11 | 0.74 | 1.09 |  | 1.089 |  |  | 0.2845 |  | 0.73 | 1.15 | 1.11 | 1.08 |  | 1.076 |  |  |  | Rolipram (4) | synergy score [1, 25]: 1.114; synergy score [2, 26]: 0.4277; synergy score [3, 27]: 1.147; synergy score [4, 28]: 4.105 |
